In patent US11325938B2, “CD73 inhibitors” (ORIC Pharmaceuticals, Inc., priority 2018, dated 2022):

Molecular target: CD73 (Homo sapiens (Human), UniProt P21589)
Test: Biochemical assay: inhibition of CD73 activity (AMP hydrolysis, Malachite Green readout)
Settings: CD73 0.3208 nM, AMP 15 μM, 25 mM Tris-HCl pH 7.4, RT, absorbance 620 nm
How it was run: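 Phosphate from AMP hydrolysis (15 μM AMP, 10 min, RT) was detected by Malachite Green absorbance to give IC50s. Enzyme at 320 pM was first exposed 15 min to compounds, dosed from 100 μM in ½-log steps, in Tris pH 7.4 buffer with MgCl2, Brij-35 and BSA.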

Chain of CD73 (P21589 27-574): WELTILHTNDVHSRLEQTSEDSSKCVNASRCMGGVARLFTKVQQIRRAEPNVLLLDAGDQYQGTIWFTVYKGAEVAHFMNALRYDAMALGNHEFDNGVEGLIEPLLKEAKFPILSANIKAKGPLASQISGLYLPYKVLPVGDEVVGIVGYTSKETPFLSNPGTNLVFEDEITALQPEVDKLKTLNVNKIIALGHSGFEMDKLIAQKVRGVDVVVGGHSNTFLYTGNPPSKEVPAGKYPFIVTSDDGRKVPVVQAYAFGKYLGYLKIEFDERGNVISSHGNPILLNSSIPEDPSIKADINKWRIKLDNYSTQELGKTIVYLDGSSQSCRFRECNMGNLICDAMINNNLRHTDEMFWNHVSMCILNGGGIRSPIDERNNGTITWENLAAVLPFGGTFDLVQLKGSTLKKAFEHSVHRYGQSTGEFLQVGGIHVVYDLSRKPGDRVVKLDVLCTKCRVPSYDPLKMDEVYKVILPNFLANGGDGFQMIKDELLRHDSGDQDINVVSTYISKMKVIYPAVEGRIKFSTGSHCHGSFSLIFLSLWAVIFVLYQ

SMILES | IC50
CCOCC(COCC)(OC[C@H]1O[C@@H](n2ncc3c(NC4CCCC4)nc(Cl)nc32)[C@H](O)[C@@H]1O)P(=O)(O)O (racemic) [Example 185, rac-(2-(((2R,3S,4R,5R)-5-(6-chloro-4-(cyclopentylamino)-1H-pyrazolo[3,4-d]pyrimidin-1-yl)-3,4-dihydroxytetrahydrofuran-2-yl)methoxy)-1,3-diethoxypropan-2-yl)phosphonic acid] | ≤ 0.1 µM
O=P(O)(O)C(CO)(CO)OC[C@H]1O[C@@H](n2ncc3c(NCC4CC4)nc(CO)nc32)[C@H](O)[C@@H]1O (racemic) [Example 202, rac-(2-(((2R,3S,4R,5R)-5-(4-((cyclopropylmethyl)amino)-6-(hydroxymethyl)-1H-pyrazolo[3,4-d]pyrimidin-1-yl)-3,4-dihydroxytetrahydrofuran-2-yl)methoxy)-1,3-dihydroxypropan-2-yl)phosphonic acid] | ≤ 0.1 µM
CS(=O)(=O)C(OC[C@H]1O[C@@H](n2ncc3c(NC4CCCC4)nc(Cl)nc32)[C@H](O)[C@@H]1O)P(=O)(O)O (stereo partly drawn) [Example 38, ((((2R,3S,4R,5R)-5-(6-chloro-4-(cyclopentylamino)-1H-pyrazolo[3,4-d]pyrimidin-1-yl)-3,4-dihydroxytetrahydrofuran-2-yl)methoxy)(methylsulfonyl)methyl)phosphonic acid] | 0.1 to 1 µM
O=P(O)(O)COC[C@H]1O[C@@H](n2nnc3c(NCC4CC4)cc(Cl)nc32)[C@H](O)[C@@H]1O [Example 21, ((((2R,3S,4R,5R)-5-(5-chloro-7-((cyclopropylmethyl)amino)-3H-[1,2,3]triazolo[4,5-b]pyridin-3-yl)-3,4-dihydroxytetrahydrofuran-2-yl)methoxy)methyl)phosphonic acid] | ≤ 0.1 µM
COC[C@@](C)(OC[C@H]1O[C@@H](n2nnc3c(NC4CCCC4)cc(Cl)nc32)[C@H](O)[C@@H]1O)P(=O)(O)O [Example 143, ((S)-2-(((2R,3S,4R,5R)-5-(5-chloro-7-(cyclopentylamino)-3H-[1,2,3]triazolo[4,5-b]pyridin-3-yl)-3,4-dihydroxytetrahydrofuran-2-yl)methoxy)-1-methoxypropan-2-yl)phosphonic acid] | ≤ 0.1 µM
COC[C@@](C)(OC[C@H]1O[C@@H](n2ncc3c(NC4CCCC4)nc(Cl)nc32)[C@H](O)[C@@H]1O)P(=O)(O)O [Example 65, ((S)-2-(((2R,3S,4R,5R)-5-(6-chloro-4-(cyclopentylamino)-1H-pyrazolo[3,4-d]pyrimidin-1-yl)-3,4-dihydroxytetrahydrofuran-2-yl)methoxy)-1-methoxypropan-2-yl)phosphonic acid] | ≤ 0.1 µM
COCC(COC)(OC[C@H]1O[C@@H](n2ncc3c(NCC4CC4)nc(Cl)nc32)[C@H](O)[C@@H]1O)P(=O)(O)O [Example 125, (2-(((2R,3S,4R,5R)-5-(6-chloro-4-((cyclopropylmethyl)amino)-1H-pyrazolo[3,4-d]pyrimidin-1-yl)-3,4-dihydroxytetrahydrofuran-2-yl)methoxy)-1,3-dimethoxypropan-2-yl)phosphonic acid] | ≤ 0.1 µM
C[C@](CO)(OC[C@H]1O[C@@H](n2ncc3c(NC4CCCC4)nc(Cl)nc32)[C@H](O)[C@@H]1O)P(=O)(O)O [Example 62, ((S)-2-(((2R,3S,4R,5R)-5-(6-chloro-4-(cyclopentylamino)-1H-pyrazolo[3,4-d]pyrimidin-1-yl)-3,4-dihydroxytetrahydrofuran-2-yl)methoxy)-1-hydroxypropan-2-yl)phosphonic acid] | ≤ 0.1 µM
C[C@@](CS(C)(=O)=O)(OC[C@H]1O[C@@H](n2ncc3c(NC4CCCC4)nc(Cl)nc32)[C@H](O)[C@@H]1O)P(=O)(O)O [Example 74, ((R)-2-(((2R,3S,4R,5R)-5-(6-chloro-4-(cyclopentylamino)-1H-pyrazolo[3,4-d]pyrimidin-1-yl)-3,4-dihydroxytetrahydrofuran-2-yl)methoxy)-1-(methylsulfonyl)propan-2-yl)phosphonic acid] | ≤ 0.1 µM
Cn1cnc(CC(CO)(OC[C@H]2O[C@@H](n3ncc4c(NC5CCCC5)nc(Cl)nc43)[C@H](O)[C@@H]2O)P(=O)(O)O)c1 (stereo partly drawn) [Example 94, (2-(((2R,3S,4R,5R)-5-(6-chloro-4-(cyclopentylamino)-1H-pyrazolo[3,4-d]pyrimidin-1-yl)-3,4-dihydroxytetrahydrofuran-2-yl)methoxy)-1-hydroxy-3-(1-methyl-1H-imidazol-4-yl)propan-2-yl)phosphonic acid] | 0.1 to 1 µM
C[C@](CO)(OC[C@H]1O[C@@H](n2ncc3c(NC4CCCC4)nc(CO)nc32)[C@H](O)[C@@H]1O)P(=O)(O)O [Example 127, ((S)-2-(((2R,3S,4R,5R)-5-(4-(cyclopentylamino)-6-(hydroxymethyl)-1H-pyrazolo[3,4-d]pyrimidin-1-yl)-3,4-dihydroxytetrahydrofuran-2-yl)methoxy)-1-hydroxypropan-2-yl)phosphonic acid] | ≤ 0.1 µM
O=P(O)(O)[C@](CO)(Cc1nn[nH]n1)OC[C@H]1O[C@@H](n2ncc3c(NCC4CC4)nc(Cl)nc32)[C@H](O)[C@@H]1O (racemic) [Example 196, rac-((R)-2-(((2S,3R,4S,5S)-5-(6-chloro-4-((cyclopropylmethyl)amino)-1H-pyrazolo[3,4-d]pyrimidin-1-yl)-3,4-dihydroxytetrahydrofuran-2-yl)methoxy)-1-hydroxy-3-(2H-tetrazol-5-yl)propan-2-yl)phosphonic acid] | ≤ 0.1 µM

Results, then the molecule that gave them:

IC50 | SMILES
≤ 0.1 µM | C[C@@](CO)(OC[C@H]1O[C@@H](n2ncc3c(NC4CCCC4)nc(Cl)nc32)[C@H](O)[C@@H]1O)P(=O)(O)O [Example 63, ((R)-2-(((2R,3S,4R,5R)-5-(6-chloro-4-(cyclopentylamino)-1H-pyrazolo[3,4-d]pyrimidin-1-yl)-3,4-dihydroxytetrahydrofuran-2-yl)methoxy)-1-hydroxypropan-2-yl)phosphonic acid]
≤ 0.1 µM | O=P(O)(O)C(CO)(CO)OC[C@H]1O[C@@H](n2ncc3c(NCc4ccc(Cl)cc4)nc(Cl)nc32)[C@H](O)[C@@H]1O (racemic) [Example 201, rac-(2-(((2R,3S,4R,5R)-5-(6-chloro-4-((4-chlorobenzyl)amino)-1H-pyrazolo[3,4-d]pyrimidin-1-yl)-3,4-dihydroxytetrahydrofuran-2-yl)methoxy)-1,3-dihydroxypropan-2-yl)phosphonic acid]
≤ 0.1 µM | CC(COCC1CC1)(OC[C@H]1O[C@@H](n2ncc3c(NC4CCCC4)nc(Cl)nc32)[C@H](O)[C@@H]1O)P(=O)(O)O (stereo partly drawn) [Example 153, (2-(((2R,3S,4R,5R)-5-(6-chloro-4-(cyclopentylamino)-1H-pyrazolo[3,4-d]pyrimidin-1-yl)-3,4-dihydroxytetrahydrofuran-2-yl)methoxy)-1-(cyclopropylmethoxy)propan-2-yl)phosphonic acid]
≤ 0.1 µM | C[C@@H](O)COc1nc(NC2CCCC2)c2cnn([C@@H]3O[C@H](CO[C@@](C)(CO)P(=O)(O)O)[C@@H](O)[C@H]3O)c2n1 (racemic) [Example 165, rac-((R)-2-(((2R,3S,4R,5R)-5-(4-(cyclopentylamino)-6-((R)-2-hydroxypropoxy)-1H-pyrazolo[3,4-d]pyrimidin-1-yl)-3,4-dihydroxytetrahydrofuran-2-yl)methoxy)-1-hydroxypropan-2-yl)phosphonic acid]
≤ 0.1 µM | COCC(C)(OC[C@H]1O[C@@H](n2nnc3c(N[C@@H]4CCc5ccccc54)nc(Cl)nc32)[C@H](O)[C@@H]1O)P(=O)(O)O (stereo partly drawn) [Example 155, (2-(((2R,3S,4R,5R)-5-(5-chloro-7-(((R)-2,3-dihydro-1H-inden-1-yl)amino)-3H-[1,2,3]triazolo[4,5-d]pyrimidin-3-yl)-3,4-dihydroxytetrahydrofuran-2-yl)methoxy)-1-methoxypropan-2-yl)phosphonic acid]
≤ 0.1 µM | O=P(O)(O)C(CO)(CO)OC[C@H]1O[C@@H](n2ncc3c(N[C@@H]4CCc5ccccc54)nc(Cl)nc32)[C@H](O)[C@@H]1O [Example 113, (2-(((2R,3S,4R,5R)-5-(6-chloro-4-(((R)-2,3-dihydro-1H-inden-1-yl)amino)-1H-pyrazolo[3,4-d]pyrimidin-1-yl)-3,4-dihydroxytetrahydrofuran-2-yl)methoxy)-1,3-dihydroxypropan-2-yl)phosphonic acid]
≤ 0.1 µM | CS(=O)(=O)CC(CO)(OC[C@H]1O[C@@H](n2ncc3c(NC4CCCC4)nc(Cl)nc32)[C@H](O)[C@@H]1O)P(=O)(O)O (stereo partly drawn) [Example 107, (2-(((2R,3S,4R,5R)-5-(6-chloro-4-(cyclopentylamino)-1H-pyrazolo[3,4-d]pyrimidin-1-yl)-3,4-dihydroxytetrahydrofuran-2-yl)methoxy)-1-hydroxy-3-(methylsulfonyl)propan-2-yl)phosphonic acid]
≤ 0.1 µM | O=P(O)(O)C(CO)(COCC(F)(F)F)OC[C@H]1O[C@@H](n2ncc3c(NC4CCCC4)nc(Cl)nc32)[C@H](O)[C@@H]1O (stereo partly drawn) [Example 95, (2-(((2R,3S,4R,5R)-5-(6-chloro-4-(cyclopentylamino)-1H-pyrazolo[3,4-d]pyrimidin-1-yl)-3,4-dihydroxytetrahydrofuran-2-yl)methoxy)-1-hydroxy-3-(2,2,2-trifluoroethoxy)propan-2-yl)phosphonic acid]
≤ 0.1 µM | O=P(O)(O)C(CO)OC[C@H]1O[C@@H](n2nnc3c(NC4CCCC4)nc(Cl)nc32)[C@H](O)[C@@H]1O (stereo partly drawn) [Example 58, (1-(((2R,3S,4R,5R)-5-(5-Chloro-7-(cyclopentylamino)-3H-[1,2,3]triazolo[4,5-d]pyrimidin-3-yl)-3,4-dihydroxytetrahydrofuran-2-yl)methoxy)-2-hydroxyethyl)phosphonic acid]
≤ 0.1 µM | CC(C)(O)C#Cc1nc(NC2CCCC2)c2cnn([C@@H]3O[C@H](COC(C)(CO)P(=O)(O)O)[C@@H](O)[C@H]3O)c2n1 (mixture of isomers) [Example 192, rac-(2-(((2R,3S,4R,5R)-5-(4-(cyclopentylamino)-6-(3-hydroxy-3-methylbut-1-yn-1-yl)-1H-pyrazolo[3,4-d]pyrimidin-1-yl)-3,4-dihydroxytetrahydrofuran-2-yl)methoxy)-1-hydroxypropan-2-yl)phosphonic acid]
